The values that follow are results of earlier work, collected in patent US20070160647A1, “Materials for medical implants and occlusive devices” (Clarity Corporation, priority 2004, published 2007).

Take `Oc1cc(Cl)ccc1Oc1ccc(Cl)cc1Cl` [triclosan]: the “solubility in DMSO and alcohols” value is reported as “highly soluble”; the solubility in water result was “insoluble”.
